Results published in US4440784A, “Anti-inflammatory, analgesic, and antipyretic pharmaceutical composition” (Kanegafuchi Chemical Industry Company, Ltd., priority 1981, dated 1984).
Where two headings read alike, the source gives them in different places.

Tests used:
[1] = tested on: carrageenan-induced paw edema in rats; test: carrageenan-induced paw edema in rats (acute anti-inflammatory activity); format: in vivo, male Wistar strain rats; conditions: po; for inhibition in vivo at 50 mg/kg / inhibition in vivo at 100 mg/kg: rat, p.o.; for inhibition in vivo at 5 mg/kg: Rattus norvegicus
Method: (1) An acute anti-inflammatory activity was evaluated by the method of carrageenan-induced paw edema in rats [C. A. Winter et al., Proc. Soc. […] Six male Wistar strain rats weighing 150~180 g were used in each group. […] The volume of each paw edema was measured 3 and 5 hours after the injection of carrageenan. Percent edema inhibition was calculated by the following equation. [formula]

[2] = tested on: acetic acid-induced writhing in mice; test: acetic acid-induced writhing in mice (analgesic activity); format: in vivo, male ddY strain mice; conditions: po
Method: An analgesic activity was evaluated by the method of acetic acid-induced writhing in mice [R. Koster et al., Federation Proc., 18, 412 (1959)]. Ten male ddY strain mice weighing 20~25 g were used in each group. Test compounds suspended in 2.5% acacia were administered p.o. to the mice. One hour later, the mice were injected i.p. with 0.6% acetic acid in a volume of 0.1 ml/10 g body weight. The number of writhes in each of mice was counted for 20 minutes after the injection of the acetic acid. Percent inhibition was calculated by the following equation. [formula]

[3] = tested on: yeast-induced fever in rats; test: yeast-induced fever in rats (antipyretic activity); format: in vivo, male Wistar strain rats; conditions: po; for inhibition in vivo at 100 mg/kg / inhibition in vivo at 50 mg/kg: rat, p.o.; for inhibition in vivo at 5 mg/kg: Rattus norvegicus
Method: Five male Wistar strain rats weighing 150~180 g were used in each group. A 20% Baker's yeast suspension in 0.9% NaCl was injected s.c. into the dorsal region of rats in a volume of 1 ml/100 g body weight. […] The rectal temperature was determined with a thermometer, 1, 3 and 5 hours after the administration of test compounds. Percent inhibition was calculated by the following equation. [formula]

[4] = toxicity test in mice (LD50); conditions: in vivo, po; mouse, 14 days observation
Method: Female ICR strain mice weighing 20~25 g in groups of six each were used for toxicity tests. Test compounds suspended in 2.5% acacia were administered p.o. to the mice. The animals were observed daily for 14 days after the administration. The LD50 values were estimated from mortality (No. of dead mice/No. of mice used).

[5] = tested on: adjuvant-induced arthritis in rats; test: adjuvant-induced arthritis in rats (chronic anti-inflammatory activity); format: in vivo, male Sprague-Dawley strain rats; conditions: rat, p.o. once daily
Method: (3) A chronic anti-inflammatory activity was evaluated by the method of adjuvant-induced arthritis in rats [D. T. Walz et al., J. Pharmacol. and Exp. Ther., 178, 223 (1971)]. Eight male Sprague-Dawley strain rats weighing 190~230 g were used in each group. Into the left hind paw of rats was injected i.d. 0.5 mg of Mycobacterium butyricum suspended in 0.05 ml of paraffin oil. Test compounds suspended in 2.5% acacia were administered p.o. once daily for 21 days, starting on the day of the injection of an adjuvant (day 0). Paw volumes of adjuvant-injected and uninjected feet were measured on day 14 and on day 21. Percent inhibition was calculated by the following equation. [formula]

[6] = tested on: paper disk-induced granuloma in rats; test: paper disk-induced granuloma in rats (sub-chronic anti-inflammatory activity); format: in vivo, male Wistar strain rats; conditions: rat, p.o. once daily for 7 days
Method: Six male Wistar strain rats weighing 150~180 g were used in each group. Each paper disk (29±1 mg) was implanted s.c. into the bilateral area of the scapula of rats under anesthesia with amobarbital sodium. […] The rats were killed on day 7, at which time the paper disks with surrounding granulomatous tissues were removed and dried to constant weight overnight, and weighed. Percent inhibition was calculated by the following equation. [formula]

[7] = 3 hours after carrageenan, read-out: Percent edema inhibition, 3 hours
[8] = 5 hours after carrageenan, read-out: Percent edema inhibition, 5 hours
[9] = mouse, p.o., 100 mg/kg, 1 hour before acetic acid i.p., read-out: Inhibition (writhing)
[10] = 1 hour after administration, read-out: Inhibition (fever), 1 hour
[11] = 3 hours after administration, read-out: Inhibition (fever), 3 hours
[12] = 5 hours after administration, read-out: Inhibition (fever), 5 hours
[13] = Mus musculus, read-out: Inhibition (writhing)

CC(C)(C)c1cc(C=CC(=O)c2ccccc2)cc(C(C)(C)C)c1O [Compound VII, β-Benzoyl-3,5-di-tert-butyl-4-hydroxystyrene]
inhibition in vivo at 50 mg/kg [1, 7]: 16.9%
inhibition in vivo at 50 mg/kg [1, 8]: 19.7%
inhibition in vivo at 100 mg/kg [2, 9]: 33%
inhibition in vivo at 100 mg/kg [3, 10]: 15.9%
inhibition in vivo at 100 mg/kg [3, 11]: 27.7%
inhibition in vivo at 100 mg/kg [3, 12]: 21.4%
LD50 at 336 h [4]: > 1000 mg/kg

CC(C)(C)c1cc(C=CC(N)=O)cc(C(C)(C)C)c1O [Compound VIII, β-Carbamoyl-3,5-di-tert-butyl-4-hydroxystyrene]
inhibition in vivo at 50 mg/kg [1, 7]: 17.6%
inhibition in vivo at 50 mg/kg [1, 8]: 14.6%
inhibition in vivo at 100 mg/kg [2, 9]: 25.8%
inhibition in vivo at 100 mg/kg [3, 10]: 19.9%
inhibition in vivo at 100 mg/kg [3, 11]: 25.9%
inhibition in vivo at 100 mg/kg [3, 12]: 16.9%
LD50 at 336 h [4]: > 1000 mg/kg

CC(C)(C)c1cc(C=C[N+](=O)[O-])cc(C(C)(C)C)c1O [Compound X, β-Nitro-3,5-di-tert-butyl-4-hydroxystyrene]
inhibition in vivo at 50 mg/kg [1, 7]: 11%
inhibition in vivo at 50 mg/kg [1, 8]: 17.3%
inhibition in vivo at 100 mg/kg [2, 13]: 24.4%
inhibition in vivo at 100 mg/kg [3, 10]: 18.6%
inhibition in vivo at 100 mg/kg [3, 11]: 30.5%
inhibition in vivo at 100 mg/kg [3, 12]: 23.4%
LD50 at 336 h [4]: > 1000 mg/kg

CC(C)(C)c1cc(C=C(C#N)S(C)(=O)=O)cc(C(C)(C)C)c1O [Compound XI, β-Methylsulfonyl-β-cyano-3,5-di-tert-butyl-4-hydroxystyrene]
inhibition in vivo at 50 mg/kg [1, 7]: 35.1%
inhibition in vivo at 50 mg/kg [1, 8]: 18.3%
inhibition in vivo at 50 mg/kg ([2]; mouse, p.o., 50 mg/kg, 1 hour before acetic acid i.p.): 31.6%
inhibition in vivo at 50 mg/kg [3, 10]: 23.2%
inhibition in vivo at 50 mg/kg [3, 11]: 31.2%
inhibition in vivo at 50 mg/kg [3, 12]: 19.9%
LD50 at 336 h [4]: 250 to 500 mg/kg

CC(C)Cc1ccc(C(C)C(=O)O)cc1 (stereo not drawn) [Ibuprofen, reference compound]
Inhibition, injected foot, Day 14 ([5]; 12.5 mg/kg/day): -2.6%
Inhibition, injected foot, Day 21 ([5]; 12.5 mg/kg/day): -17.4%
Inhibition, uninjected foot, Day 14 ([5]; 12.5 mg/kg/day): 13.5%
Inhibition, uninjected foot, Day 21 ([5]; 12.5 mg/kg/day): -7.4%
Inhibition, injected foot, Day 14 ([5]; 50 mg/kg/day): -1.7%
Inhibition, injected foot, Day 21 ([5]; 50 mg/kg/day): 28.7%
Inhibition, uninjected foot, Day 14 ([5]; 50 mg/kg/day): 32.4%
Inhibition, uninjected foot, Day 21 ([5]; 50 mg/kg/day): 44.4%

COc1ccc2c(c1)c(CC(=O)O)c(C)n2C(=O)c1ccc(Cl)cc1 [Indomethacin, reference compound]
inhibition in vivo at 5 mg/kg ([1]; 3 h, read-out: Percent edema inhibition, 3 hours): 32.8%
inhibition in vivo at 5 mg/kg ([1]; 5 h, read-out: Percent edema inhibition, 5 hours): 39.2%
Inhibition (granuloma) ([6]; 1.25 mg/kg/day): 14.0%
Inhibition (granuloma) ([6]; 5 mg/kg/day): 25.5%
inhibition in vivo at 5 mg/kg [2, 13]: 62.7%
inhibition in vivo at 5 mg/kg ([3]; 1 h, read-out: Inhibition (fever), 1 hour): 35.4%
inhibition in vivo at 5 mg/kg ([3]; 3 h, read-out: Inhibition (fever), 3 hours): 56.4%
inhibition in vivo at 5 mg/kg ([3]; 5 h, read-out: Inhibition (fever), 5 hours): 66.2%

CCCCC1C(=O)N(c2ccccc2)N(c2ccccc2)C1=O [Phenylbutazone, reference compound]
inhibition in vivo at 100 mg/kg [1, 7]: 23.6%
inhibition in vivo at 100 mg/kg [1, 8]: 28.9%
Inhibition (granuloma) ([6]; 25 mg/kg/day): 5.6%
Inhibition (granuloma) ([6]; 100 mg/kg/day): 24.2%
